Measured values: US20060258697A1, “Method of augmenting the antitumor activity of anticancer agents” (priority 2003, published 2006)

Tests used:
rat = test: Reduction of doxorubicin toxicity by selenium compounds in rats; assay type: in vivo; details: 0.5 mg/day/rat daily for 14 days, started 7 days prior to doxorubicin; data not shown
nude mice = test: Irinotecan lethality / survival with and without selenium compound; assay type: in vivo; details: nude mice, p.o. daily
Experimental: This example describes the evaluation of the effect of selenium containing compounds on the antitumor activity of irinotecan. […] Irinotecan was administered at 100 mg/kg/wk for 4 weeks (MTD) and 200 mg/kg/wk for 4 weeks (toxic) alone and in combination with 0.2 mg/mouse/d of MSC for 28 days to nude mice bearing HCT-8 colon xenografts. […] Thus, MSC potentiates the efficacy of irinotecan by increasing cure rate and by decreasing toxicity.
Nude mice (5 mice/group; experiment repeated ≧3 times) were treated with 0.2 mg/mouse/day of SLM (data replicated with MSC) for 21, 7, 3, 1, or 0 days prior to initiation of weekly IV irinotecan at 2 ×the MTD (at 200mg/kg/week×4). […] 3 days pre-treatment was associated with 80% survivorship while 0-1 days were associated with 60% (45% survivorship for irinotecan alone) (FIG. 13). Thus, the optimal duration of pre-treatment with SLM 0.2mg/mouse/day for maximum protection against irinotecan lethality was identified to be at least 1 week.

normal nude mice = test: Toxicity of selenium compounds alone in normal nude mice; assay type: in vivo; details: 0.2 mg/mouse/day for 28 days orally
Experimental: However, it was observed that when cure rates were evaluated, selenium increased the efficacy of only irinotecan and taxotere. While not intending to be bound by any particular theory, it is considered that potentiation of the efficacy of anticancer drugs is associated with increased antitumor activity and decreased toxicity.

[1] = system: A253 squamous cell carcinoma of the head and neck xenografts; test: Cure rate / antitumor activity in nude mice bearing A253 head and neck xenografts; assay type: in vivo; details: Table 3 (A253); drug dose mg/kg and MSC mg/mouse/day in parentheses of Treatment
Experimental: (§1) 5-Methylselenocysteine (MSC). Two schedules were evaluated: 1) in combination with irinotecan, MSC (0.2 mg/mouse/d×28) was administered orally for 28 days with the first dose administered daily for seven days prior to the weekly drug administration and 2) in combination with other drugs, MSC was administered orally (0.2 mg/mouse/d×14) daily for 14 days with the first dose administered daily for seven days prior to the single i.v. administration of taxol, CDDP, Dox, taxotere and cyclophosphamide.
(§2) Anticancer drug administration. The anticancer drugs administration schedule was as follows. • i. Irinotecan (CPT-11), weekly i.v. push for four (4) weeks, • ii. Taxol, single i.v. push, • iii. Cisplatin (CDDP), single i.v. push. • iv. Doxorubin (Dox), single i.v. push. • v. Cyclophosphamide, single i.v. push. • vi. Oxaliplatin, single i.v. push • vii. Taxotere, single i.v. push
(§3) Tumor Xenografts. […] The following tumor xenografts were established. • i. HCT-8: poorly-differentiated colon carcinoma, expressing wild type p53 • ii. HT-29: well-differentiated colon carcinoma expressing mutant p53 • iii. A253: well-differentiated squamous cell carcinoma of the head and neck (SCCHN) expressing no p53 • iv. FaDu: poorly-differentiated squamous cell carcinoma of the head and neck (SCCHN) expressing mutant p53
This example describes the comparative antitumor activity of MSC and SLM in combination with the maximum tolerated dose of irinotecan. […] As an illustration, MSC and SLM were used in combination with irinotecan. The results, shown in FIG. 3, represent a comparative evaluation of the effect of MSC and SLM (0.2 mg/mouse/d×28) on the antitumor activity of irinotecan (100 mg/kg/wk×4).
To determine whether therapeutic synergy achieved with irinotecan in xenografts is specific for MSC, the antitumor activity of irinotecan with and without two selenium-containing compounds, MSC and SLM were compared in xenografts bearing A253 (SCCHN) tumors for the […] (200 mg/kg/wk×4). The data compare the antitumor activity of MSC with SLM in combination with irinotecan (200 mg/kg/wk×4).
(§4) This example describes the modulation of the antitumor activity of anticancer drugs by MSC in mice bearing human tumors. […] To determine whether modulation of the therapeutic efficacy and cure of irinotecan by MSC is drug specific, the antitumor activity of drugs, representing different classes and mechanisms of action were evaluated alone and in combination with non-toxic doses and schedules of MSC (0.2 mg/mouse/d×14) in xenografts bearing human A253 and FaDu (SCCHN) tumors (FIG. 5). The data in FIG. 5 represent the use of the MTD doses of cisplatin (8 mg/kg×1), cyclophosphamide (100 mg/kg×1), taxol (35 mg/kg ×1.) and doxorubicin (10 mg/kg×1).

in vivo [2] = details: nude, mouse
in vivo [3] = details: rat
[4] = system: FaDu squamous cell carcinoma of the head and neck xenografts; test: Cure rate / antitumor activity in nude mice bearing FaDu head and neck xenografts; assay type: in vivo; details: Table 3 first column pair (head printed 'FaUra'), drug dose mg/kg and MSC mg/mouse/day in parentheses of Treatment; for CR (%) (complete tumor regression): schedules per footnote
Experimental: as §1, §2
Tumor Xenografts. […] The following tumor xenografts were established. • i. HCT-8: poorly-differentiated colon carcinoma, expressing wild type p53 • ii. HT-29: well-differentiated colon carcinoma expressing mutant p53 • iii. A253: well-differentiated squamous cell carcinoma of the head and neck (SCCHN) expressing no p53 • iv. FaDu: poorly-differentiated squamous cell carcinoma of the head and neck (SCCHN) expressing mutant p53 […]
as §4
In mice, MSC was orally administered at 0.2 mg/mouse/d with the first daily dose administered seven days prior to single i.v. administration of drug and continuous for additional seven days for a total MSC treatment of 14 days.

HT-29 colon xenografts = test: Cure rate / antitumor activity in nude mice bearing HT-29 colon xenografts; assay type: in vivo; details: drug 100 mg/kg/week i.v. × 4; MSC 0.2 mg/day/mouse p.o. 42 days started 21 days before drug
HCT-8 colon xenografts = test: Cure rate / antitumor activity in nude mice bearing HCT-8 colon xenografts; assay type: in vivo; details: drug 100 mg/kg/week i.v. × 4; MSC 0.2 mg/day/mouse p.o. 42 days started 21 days before drug
Experimental: as §1, §2, §3
This example describes the evaluation of the effect of selenium containing compounds on the antitumor activity of irinotecan. […] Irinotecan was administered at 100 mg/kg/wk for 4 weeks (MTD) and 200 mg/kg/wk for 4 weeks (toxic) alone and in combination with 0.2 mg/mouse/d of MSC for 28 days to nude mice bearing HCT-8 colon xenografts.
For these experiments, FUra was administered by i.v. push weekly times 4 and MSC by p.o. once a day for 6 weeks, the first dose being given 3 weeks before FUra administration. Irinotecan was administered by i.v. 100 mg/kg/week once a week for 4 weeks and MSC (0.2 mg/day), by p.o. daily for 28 days with the first dose started 7 days prior to irinotecan treatment.

Mice = details: drug alone (−) or with MSC (+)

Compound | reducing toxicity of doxorubicin (rat) | CR (%) (complete tumor regression) [1] | PR (%) (partial tumor regression, >50% tumor reduction) [1] | PR (%) (partial tumor regression, >50% tumor reduction) [4] | CR (%) (complete tumor regression) [4] | further results
C[Se]C[C@H](N)C(=O)O [MSC, 5-methylselenocysteine] | effective in reducing toxicity |  |  |  |  | lowest effective dose in attenuating irinotecan toxicity (nude mice): 0.01 mg/day; toxicity of selenium compound alone (normal nude mice): not to be toxic
CC(=O)O[C@H]1C(=O)[C@@]2(C)[C@H]([C@H](OC(=O)c3ccccc3)[C@]3(O)C[C@H](OC(=O)[C@H](O)[C@@H](NC(=O)c4ccccc4)c4ccccc4)C(C)=C1C3(C)C)[C@]1(OC(C)=O)CO[C@@H]1C[C@@H]2O [Taxol] |  | 0% | 0% | 0% | 0% | MTD (in vivo [2]): 35 mg/kg; MTD (in vivo [3]): 50 mg/kg
O=[Se](O)O [sodium selenite] | not sodium selenite |  |  |  |  | 
O=c1[nH]cc(F)c(=O)[nH]1 [FUra] |  | 0% | 0% |  | 0% | HT-29 CR (%) (HT-29 colon xenografts): 0%; HT-29 PR (%) (HT-29 colon xenografts): 0%; HCT-8 CR (%) (HCT-8 colon xenografts): 0%; HCT-8 PR (%) (HCT-8 colon xenografts): 0%
CCCCCOC(=O)Nc1nc(=O)n([C@@H]2O[C@H](C)[C@@H](O)[C@H]2O)cc1F [Xeloda] |  | 0% | 0% |  | 0% | 
N.N.[Cl][Pt][Cl] [Cisplatin, cisplatin] |  | 0% | 0% | 0% | 0% | MTD (mg/kg) Mice (Mice): 8 mg/kg
